Test results from the supplement of paper PMC8967900.

Legend:
Assay in all cases: selective drug sensitivity score (sDSS, relative to normal bone marrow) (sDSS (score)); higher = more potent and effective on the cell line relative to normal bone marrow cells
Conditions in all cases: 72 h
KASUMI-10 = test system: KASUMI-10
RPMI-8402 = test system: RPMI-8402
COG-LL-394h = test system: COG-LL-394h
HPB-ALL = test system: HPB-ALL
COG-LL-355h = test system: COG-LL-355h
NALM-16 = test system: NALM-16
NALM-6 = test system: NALM-6
697 = test system: 697
COG-LL-402h = test system: COG-LL-402h
KASUMI-9 = test system: KASUMI-9
DND-41 = test system: DND-41
RCH-ACV = test system: RCH-ACV
CCRF-CEM = test system: CCRF-CEM
380 = test system: 380
REH = test system: REH
MOLT-16 = test system: MOLT-16
KASUMI-2 = test system: KASUMI-2
MOLT-14 = test system: MOLT-14
ALL-SIL = test system: ALL-SIL
MHH-CALL-4 = test system: MHH-CALL-4
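Further: ALL cell lines in 384-well plates, five doses spanning 10,000-fold, each plate scaled between vehicle and 100 µmol/L benzalkonium chloride controls, sDSS an adapted area-under-curve metric.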

SMILES	selective drug sensitivity score (KASUMI-10)	selective drug sensitivity score (RPMI-8402)	selective drug sensitivity score (COG-LL-394h)	selective drug sensitivity score (HPB-ALL)	selective drug sensitivity score (COG-LL-355h)	selective drug sensitivity score (NALM-16)	selective drug sensitivity score (NALM-6)	selective drug sensitivity score 697	selective drug sensitivity score (COG-LL-402h)	selective drug sensitivity score (KASUMI-9)	selective drug sensitivity score (DND-41)	selective drug sensitivity score (RCH-ACV)	selective drug sensitivity score (CCRF-CEM)	selective drug sensitivity score 380	selective drug sensitivity score (REH)	selective drug sensitivity score (MOLT-16)	selective drug sensitivity score (KASUMI-2)	selective drug sensitivity score (MOLT-14)	selective drug sensitivity score (ALL-SIL)	selective drug sensitivity score (MHH-CALL-4)
CC(O)(CS(=O)(=O)c1ccc(F)cc1)C(=O)Nc1ccc(C#N)c(C(F)(F)F)c1 (stereo not given) [Bicalutamide] (top concentration 10000 nM)	-1.68	1.02	-0.18	-1.68	2.62	0.62	2.02	-0.68	-1.68	0.52	-1.68	-1.68	-0.38	1.72	-1.68	6.92	-1.68	2.52	-1.68	-1.68
COc1cc(Nc2c(C#N)cnc3cc(OCCCN4CCN(C)CC4)c(OC)cc23)c(Cl)cc1Cl [Bosutinib] (top concentration 10000 nM)	-1.14	1.56	1.16	-2.64	1.86	-3.04	-1.24	5.86	5.66	4.06	0.06	5.76	-0.74	-0.64	-1.94	0.16	-2.04	1.86	26.7	-3.14
Cc1cc2c(F)c(Oc3ncnn4cc(OC[C@@H](C)O)c(C)c34)ccc2[nH]1 [Brivanib] (top concentration 1000 nM)	-0.04	0.46	-0.04	-0.04	-0.04	-0.04	-0.04	0.66	-0.04	-0.04	-0.04	1.96	-0.04	-0.04	0.96	-0.04	-0.04	0.26	-0.04	-0.04
Cc1ccc(-c2cc(C(F)(F)F)nn2-c2ccc(S(N)(=O)=O)cc2)cc1 [Celecoxib] (top concentration 10000 nM)	-0.06	0.54	-0.06	-0.06	-0.06	-0.06	-0.06	-0.06	-0.06	-0.06	1.24	0.64	-0.06	7.74	-0.06	0.34	7.54	-0.06	0.54	-0.06
N.N.[Cl][Pt][Cl] [Cisplatin] (top concentration 100000 nM)	12	4.04	0.54	7.14	5.84	-0.86	0.64	19.7	1.54	12.3	9.54	20.5	15.3	7.54	10.8	17.7	17.2	18.6	8.94	10.7
Cc1c2oc3c(C)ccc(C(=O)N[C@@H]4C(=O)N[C@H](C(C)C)C(=O)N5CCC[C@H]5C(=O)N(C)CC(=O)N(C)[C@@H](C(C)C)C(=O)O[C@@H]4C)c3nc-2c(C(=O)N[C@@H]2C(=O)N[C@H](C(C)C)C(=O)N3CCC[C@H]3C(=O)N(C)CC(=O)N(C)[C@@H](C(C)C)C(=O)O[C@@H]2C)c(N)c1=O [Dactinomycin] (top concentration 1000 nM)	17.6	1.54	12.2	6.14	8.54	5.24	12.5	19.2	15.2	19.4	11	18.5	7.04	17.2	16.3	18.8	15	16.9	8.04	11.6
O=C(O)CCCCC(CCSCc1ccccc1)SCc1ccccc1 (stereo not given) [Devimistat (CPI-613)] (top concentration 10000 nM)	0	0	0	0	2.4	0.4	0	0	0	0	0.6	0	0	1.9	0	0	0	0	0	0
CC(=O)O[C@@]12CO[C@@H]1C[C@H](O)[C@@]1(C)C(=O)[C@H](O)C3=C(C)[C@@H](OC(=O)[C@H](O)[C@@H](NC(=O)OC(C)(C)C)c4ccccc4)C[C@@](O)([C@@H](OC(=O)c4ccccc4)[C@H]21)C3(C)C [Docetaxel] (top concentration 1000 nM)	14.6	13.2	8.5	12.5	5.1	12.3	14.1	23.4	15	21	3.3	22.6	19.8	22.4	21.1	23.5	16.4	19.5	20.6	8.2
